Data taken from patent US20110200535A1, “DAA-PYRIDINE AS PERIPHERAL BENZODIAZEPINE RECEPTOR LIGAND FOR DIAGNOSTIC IMAGING AND PHARMACEUTICAL TREATMENT” (BAYER SCHERING PHARMA AKTIENGESELLSCHAFT, priority 2008, published 2011).
Several values for one entry are separate records, joined by “and”; a condition that tells them apart may be missing. Equal values may be shown once.

Key:
[1] = cited from earlier work
PBR = PBR (Homo sapiens, UniProt P30536); experiment: PBR binding, [^3H]-PK11195
[2] = molecular target: CBR (central diazepine receptor); experiment: CBR binding, [^3H]-Flumazenil
[3] = molecular target: T1, peripheral benzodiazepine receptor (PBR) (Rattus norvegicus, UniProt P16257); experiment: Ex vivo autoradiography of brain sections, rat kainic acid induced epilepsy model; assay type: in vivo; settings: for Hipp/Cereb ratio (signal-to-background ratio, hippocampus/cerebellum): rat kainic acid model, 30 min ex vivo autoradiography
T1 construct: from tissue; host or cells: rat brain (hippocampus, cerebellum) after i.v. tracer injection
Method: Using a rat kainic acid induced epilepsy model and respective sham controls the accumulation of [^18F]-2d and [^18F]-5d was visualized ex vivo. In brief, epilepsy was induced in rats by injecting kainic acid i.p. At day eight after the start of the kainic acid treatment [^18F]-2d and [^18F]-5d were injected into the tail vein of the rats and their sham treated controls (PBS instead of kainic acid) at a dose of 25.8-35.8 MBq (approximately 1.0 μg) per rat. Thirty minutes after intravenous injection the rats were sacrificed, the brains were taken out, snap frozen and sliced transversally in a cryostat. The slices were exposed to PhosphoImager plates over night. The resulting autoradiographic signals were analyzed qualitatively and quantitatively (FIG. 2.1 A and C, 2.2 A and C). […] To determine the specificity of the [^18F]-2d and [^18F]-5d binding, kainic acid treated rats were co-injected with [^19F]-2e and [^19F]-5e, respectively.
The autoradiographic signals were quantified. The signal intensity in a hippocampal region of interest (ROI) was measured and compared to a ROI in the cerebellum, that was used as reference region.

[4] = Biodistribution of [^18F]-radioactivity in healthy male NMRI mice after intravenous injection (gamma counter); assay type: in vivo; settings: for [^18F]-radioactivity in adrenals / [^18F]-radioactivity in blood / [^18F]-radioactivity in bone / [^18F]-radioactivity in brain (brain uptake) / [^18F]-radioactivity in fat / [^18F]-radioactivity in heart / [^18F]-radioactivity in intestine / [^18F]-radioactivity in kidney / [^18F]-radioactivity in liver / [^18F]-radioactivity in lung / [^18F]-radioactivity in muscle / [^18F]-radioactivity in pancreas / [^18F]-radioactivity in skin / [^18F]-radioactivity in spleen / [^18F]-radioactivity in stomach / [^18F]-radioactivity in testes / [^18F]-radioactivity in thyroid: normal mice, i.v., decay corrected
Method: (§1) The biodistribution of [^18F]-2d and [^18F]-5d was investigated in healthy male NMRI mice (28.3-35.6 g body weight, n=3 animals per time point) at 2, 5, 30, 60 and 180/240 min after intravenous injection of 0.264 MBq [^18F]-2d and 0.268 MBq [^18F]-5d per animal, respectively. Until the indicated time points urine and faeces were quantitatively collected. At the respective time points the mice were sacrificed and the tissues were removed. [^18F]-radioactivity was analyzed in a gamma counter (Tab. 1.1, 2.1 and 1.2, 2.2).

[5] = Excretion of [^18F]-radioactivity via urine and faeces in normal mice (gamma counter); assay type: in vivo; settings: i.v., decay corrected
Method: as §1

PBR, sequence (P30536 whole entry, species assumed): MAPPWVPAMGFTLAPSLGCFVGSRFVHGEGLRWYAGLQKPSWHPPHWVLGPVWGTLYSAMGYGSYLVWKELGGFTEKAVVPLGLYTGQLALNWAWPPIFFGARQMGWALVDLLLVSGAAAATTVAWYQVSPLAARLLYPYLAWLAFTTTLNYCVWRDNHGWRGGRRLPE

CC(=O)N(Cc1ccccc1OCC[18F])c1cnccc1Oc1ccccc1 [[^18F]-FEPPA]
Brain uptake, standard uptake value (SUV), washout ([1]; after 60 min): 0.35
Brain uptake, standard uptake value (SUV) ([1]; at 5 min): 0.6

CCN(CC)C(=O)Cc1c(-c2ccc(OCCF)cc2)nn2c(C)cc(C)nc12 [[^19F]-DPA-714, reference compound]
Ki (PBR): 1.46 ± 0.12 nM
Ki [2]: > 20000 nM

COc1ccc(OCCF)c(CN(C(C)=O)c2cccnc2Oc2cccc(C)c2C)c1 [[^19F]-5e, N-[2-(2,3-dimethylphenoxy)pyridin-3-yl]-N-[2-(2-fluoroethoxy)-5-methoxybenzyl]acetamide]
Hipp/Cereb ratio (signal-to-background ratio, hippocampus/cerebellum) [3]: 5.6±1.8
Ki (PBR): 2.57 ± 0.06 nM
Ki [2]: > 20000 nM

COc1ccc(Oc2ncccc2N(Cc2cc(OC)ccc2OCC[18F])C(C)=O)cc1 [[^18F]-2d, N-[2-(2-[^18F]fluoroethoxy)-5-methoxybenzyl]-N-[2-(4-methoxyphenoxy)pyridin-3-yl]acetamide]
Initial elimination of the radioactivity from the brain ([4]; mice, 30 min p.i.): ca. 72%
Elimination from mouse brain, 2 min/30 min ratio of brain uptake (% ID/g) ([4]; mice, brain, 2 min to 30 min): 3.7
[^18F]-radioactivity in adrenals ([4]; 2 min): 7.37 ± 2.53 % injected dose/g
[^18F]-radioactivity in blood ([4]; 2 min): 2.35 ± 0.15 % injected dose/g
[^18F]-radioactivity in bone ([4]; 2 min): 0.87 ± 0.11 % injected dose/g
[^18F]-radioactivity in brain (brain uptake) ([4]; 2 min): 1.37±0.04 % injected dose/g
[^18F]-radioactivity in fat ([4]; 2 min): 0.41 ± 0.49 % injected dose/g
[^18F]-radioactivity in heart ([4]; 2 min): 16.53 ± 0.48 % injected dose/g
[^18F]-radioactivity in intestine ([4]; 2 min): 0.82 ± 0.04 % injected dose/g
[^18F]-radioactivity in kidney ([4]; 2 min): 5.92 ± 1.40 % injected dose/g
[^18F]-radioactivity in liver ([4]; 2 min): 1.20 ± 0.28 % injected dose/g
[^18F]-radioactivity in lung ([4]; 2 min): 61.50 ± 10.42 % injected dose/g
[^18F]-radioactivity in muscle ([4]; 2 min): 1.23 ± 0.47 % injected dose/g
[^18F]-radioactivity in pancreas ([4]; 2 min): 1.91 ± 0.33 % injected dose/g
[^18F]-radioactivity in skin ([4]; 2 min): 0.51 ± 0.14 % injected dose/g
[^18F]-radioactivity in spleen ([4]; 2 min): 1.50 ± 0.20 % injected dose/g
[^18F]-radioactivity in stomach ([4]; 2 min): 2.15 ± 1.25 % injected dose/g
[^18F]-radioactivity in testes ([4]; 2 min): 0.48 ± 0.10 % injected dose/g
[^18F]-radioactivity in thyroid ([4]; 2 min): 2.15 ± 1.49 % injected dose/g
[^18F]-radioactivity in adrenals ([4]; 5 min): 10.39 ± 3.44 % injected dose/g
[^18F]-radioactivity in blood ([4]; 5 min): 1.44 ± 0.07 % injected dose/g
[^18F]-radioactivity in bone ([4]; 5 min): 1.30 ± 0.02 % injected dose/g
[^18F]-radioactivity in brain (brain uptake) ([4]; 5 min): 0.95 ± 0.07 % injected dose/g
[^18F]-radioactivity in fat ([4]; 5 min): 0.25 ± 0.06 % injected dose/g
[^18F]-radioactivity in heart ([4]; 5 min): 17.09 ± 0.64 % injected dose/g
[^18F]-radioactivity in intestine ([4]; 5 min): 1.36 ± 0.33 % injected dose/g
[^18F]-radioactivity in kidney ([4]; 5 min): 7.45 ± 1.00 % injected dose/g
[^18F]-radioactivity in liver ([4]; 5 min): 1.41 ± 0.26 % injected dose/g
[^18F]-radioactivity in lung ([4]; 5 min): 34.75 ± 6.56 % injected dose/g
[^18F]-radioactivity in muscle ([4]; 5 min): 1.58 ± 0.52 % injected dose/g
[^18F]-radioactivity in pancreas ([4]; 5 min): 2.23 ± 0.60 % injected dose/g
[^18F]-radioactivity in skin ([4]; 5 min): 0.60 ± 0.11 % injected dose/g
[^18F]-radioactivity in spleen ([4]; 5 min): 4.78 ± 0.73 % injected dose/g
[^18F]-radioactivity in stomach ([4]; 5 min): 1.89 ± 1.77 % injected dose/g
[^18F]-radioactivity in testes ([4]; 5 min): 0.50 ± 0.15 % injected dose/g
[^18F]-radioactivity in thyroid ([4]; 5 min): 2.65 ± 0.58 % injected dose/g
[^18F]-radioactivity in adrenals ([4]; 30 min): 15.51 ± 0.48 % injected dose/g
[^18F]-radioactivity in blood ([4]; 30 min): 0.70 ± 0.14 % injected dose/g
[^18F]-radioactivity in bone ([4]; 30 min): 1.67 ± 0.32 % injected dose/g
[^18F]-radioactivity in brain (brain uptake) ([4]; 30 min): 0.37±0.04 % injected dose/g
[^18F]-radioactivity in fat ([4]; 30 min): 0.46 ± 0.10 % injected dose/g
[^18F]-radioactivity in heart ([4]; 30 min): 7.94 ± 1.52 % injected dose/g
[^18F]-radioactivity in intestine ([4]; 30 min): 2.15 ± 0.62 % injected dose/g
[^18F]-radioactivity in kidney ([4]; 30 min): 10.99 ± 1.08 % injected dose/g
[^18F]-radioactivity in liver ([4]; 30 min): 1.61 ± 0.43 % injected dose/g
[^18F]-radioactivity in lung ([4]; 30 min): 10.66 ± 0.71 % injected dose/g
[^18F]-radioactivity in muscle ([4]; 30 min): 1.80 ± 0.17 % injected dose/g
[^18F]-radioactivity in pancreas ([4]; 30 min): 2.85 ± 0.03 % injected dose/g
[^18F]-radioactivity in skin ([4]; 30 min): 0.98 ± 0.06 % injected dose/g
[^18F]-radioactivity in spleen ([4]; 30 min): 6.98 ± 0.82 % injected dose/g
[^18F]-radioactivity in stomach ([4]; 30 min): 3.49 ± 0.45 % injected dose/g
[^18F]-radioactivity in testes ([4]; 30 min): 0.79 ± 0.11 % injected dose/g
[^18F]-radioactivity in thyroid ([4]; 30 min): 3.95 ± 0.81 % injected dose/g
[^18F]-radioactivity in adrenals ([4]; 60 min): 23.01 ± 8.20 % injected dose/g
[^18F]-radioactivity in blood ([4]; 60 min): 0.60 ± 0.09 % injected dose/g
[^18F]-radioactivity in bone ([4]; 60 min): 1.75 ± 0.09 % injected dose/g
[^18F]-radioactivity in brain (brain uptake) ([4]; 60 min): 0.34 ± 0.02 % injected dose/g
[^18F]-radioactivity in fat ([4]; 60 min): 0.49 ± 0.06 % injected dose/g
[^18F]-radioactivity in heart ([4]; 60 min): 5.22 ± 0.61 % injected dose/g
[^18F]-radioactivity in intestine ([4]; 60 min): 2.33 ± 0.34 % injected dose/g
[^18F]-radioactivity in kidney ([4]; 60 min): 11.04 ± 0.48 % injected dose/g
[^18F]-radioactivity in liver ([4]; 60 min): 1.56 ± 0.22 % injected dose/g
[^18F]-radioactivity in lung ([4]; 60 min): 6.31 ± 0.34 % injected dose/g
[^18F]-radioactivity in muscle ([4]; 60 min): 2.34 ± 0.23 % injected dose/g
[^18F]-radioactivity in pancreas ([4]; 60 min): 2.56 ± 0.26 % injected dose/g
[^18F]-radioactivity in skin ([4]; 60 min): 1.14 ± 0.06 % injected dose/g
[^18F]-radioactivity in spleen ([4]; 60 min): 6.09 ± 0.50 % injected dose/g
[^18F]-radioactivity in stomach ([4]; 60 min): 4.37 ± 0.51 % injected dose/g
[^18F]-radioactivity in testes ([4]; 60 min): 0.84 ± 0.09 % injected dose/g
[^18F]-radioactivity in thyroid ([4]; 60 min): 3.88 ± 0.10 % injected dose/g
[^18F]-radioactivity in adrenals ([4]; 180 min): 13.74 ± 7.36 % injected dose/g
[^18F]-radioactivity in blood ([4]; 180 min): 0.66 ± 0.09 % injected dose/g
[^18F]-radioactivity in bone ([4]; 180 min): 2.3 % injected dose/g and 2.25 ± 0.20 % injected dose/g
[^18F]-radioactivity in brain (brain uptake) ([4]; 180 min): 0.35 ± 0.02 % injected dose/g
[^18F]-radioactivity in fat ([4]; 180 min): 2.02 ± 1.06 % injected dose/g
[^18F]-radioactivity in heart ([4]; 180 min): 2.78 ± 0.18 % injected dose/g
[^18F]-radioactivity in intestine ([4]; 180 min): 4.28 ± 0.94 % injected dose/g
[^18F]-radioactivity in kidney ([4]; 180 min): 10.63 ± 1.41 % injected dose/g
[^18F]-radioactivity in liver ([4]; 180 min): 1.29 ± 0.20 % injected dose/g
[^18F]-radioactivity in lung ([4]; 180 min): 4.57 ± 1.44 % injected dose/g
[^18F]-radioactivity in muscle ([4]; 180 min): 1.84 ± 0.29 % injected dose/g
[^18F]-radioactivity in pancreas ([4]; 180 min): 1.76 ± 0.40 % injected dose/g
[^18F]-radioactivity in skin ([4]; 180 min): 1.60 ± 0.19 % injected dose/g
[^18F]-radioactivity in spleen ([4]; 180 min): 4.07 ± 0.51 % injected dose/g
[^18F]-radioactivity in stomach ([4]; 180 min): 4.37 ± 0.68 % injected dose/g
[^18F]-radioactivity in testes ([4]; 180 min): 1.14 ± 0.11 % injected dose/g
[^18F]-radioactivity in thyroid ([4]; 180 min): 3.91 ± 0.75 % injected dose/g
Excretion of [^18F]-radioactivity via faeces ([5]; 2 min): 0.00 ± 0.00 % injected dose
Excretion of [^18F]-radioactivity via urine ([5]; 2 min): 0.02 ± 0.01 % injected dose
Excretion of [^18F]-radioactivity via faeces ([5]; 5 min): 0.02 ± 0.03 % injected dose
Excretion of [^18F]-radioactivity via urine ([5]; 5 min): 0.02 ± 0.01 % injected dose
Excretion of [^18F]-radioactivity via faeces ([5]; 30 min): 0.01 ± 0.00 % injected dose
Excretion of [^18F]-radioactivity via urine ([5]; 30 min): 1.72 ± 0.08 % injected dose
Excretion of [^18F]-radioactivity via faeces ([5]; 60 min): 0.03 ± 0.03 % injected dose
Excretion of [^18F]-radioactivity via urine ([5]; 60 min): 4.21 ± 0.39 % injected dose
Excretion of [^18F]-radioactivity via faeces ([5]; 180 min): 0.59±0.61 % injected dose
Excretion of [^18F]-radioactivity via urine ([5]; 180 min): 13.09±1.33 % injected dose
Specificity of binding: autoradiographic signal on co-injection of the corresponding [^19F] compound ([3]; kainic acid treated rats, co-injected with [^19F]-2e and [^19F]-5e, respectively): significantly reduced autoradiographic signal
Hipp/Cereb ratio (signal-to-background ratio, hippocampus/cerebellum) [3]: 5.6 ± 1.8

COc1ccc(OCCF)c(CN(C(C)=O)c2cc(F)ccc2Oc2ccccc2)c1 [[^19F]-FEDAA1106, reference compound]
Ki (PBR): 1.5 ± 0.15 nM
Ki [2]: > 20000 nM

COc1ccc(Oc2ncccc2N(Cc2cc(OC)ccc2OCCF)C(C)=O)cc1 [[^19F]-2e, N-[2-(2-fluoroethoxy)-5-methoxybenzyl]-N-[2-(4-methoxyphenoxy)pyridin-3-yl]acetamide]
Ki (PBR): 3.6 ± 1.3 nM
Ki [2]: > 20000 nM
